logP | Compound
0.08 | COc1cccnn1
-0.25 | Nc1ccncn1
-0.96 | NC(=O)c1ccnnc1
-0.43 | COC(=O)c1cccnn1
0.01 | Cc1cncnc1
-0.31 | COc1ccnnc1
0.23 | CCOC(=O)c1ccnnc1
0.63 | CCOc1cccnn1
-0.27 | COC(=O)c1ccnnc1
-0.73 | NC(=O)c1cccnn1
-0.35 | Cc1cccnn1
-0.63 | N#Cc1ccnnc1
0.54 | COc1ccncn1
0.1 | Clc1cccnn1
0.58 | CN(C)c1ccncn1
-0.05 | Cc1ncccn1
-0.32 | Cc1ccnnc1
-0.53 | Nc1ccnnc1

Second part, the compound before the results:

Compound | logP
CCOc1cncnc1 | 0.56
CCOc1nccnc1C | 1.82
CCOC(=O)c1cncnc1 | 0.52
N#Cc1ncc(Cl)nc1C#N | 0.95
Fc1cncc(F)n1 | 0.74
N#Cc1ncccn1 | -0.31
CCOC(=O)c1ncccn1 | -0.31
NC(=O)c1cncnc1 | -0.92
COC(=O)c1ncccn1 | -0.71
CSc1ncccn1 | 1.01
CC(=O)Nc1cncnc1 | -0.22
CCCCc1nc(C#N)c(C#N)nc1C | 2.3
NC(=O)c1ncccn1 | -1.2
COC(=O)c1ccoc1 | 1.28
COC(=O)c1cncnc1 | 0.03
CCc1nccnc1OC | 1.8
Nc1cnc(Cl)cn1 | 0.67
NC(=O)c1ccncn1 | -0.68
CN(C)c1cncnc1 | 0.46
CCOc1ncccn1 | 0.74
Fc1ncccn1 | 0.02
COC(=O)c1ccncn1 | -0.27
Clc1ncccn1 | 0.36
CN(C)c1ncccn1 | 1.07
CC(=O)Nc1ccncn1 | 0.03
COc1cncnc1 | 0.07

Source: the OPERA property sets (Mansouri et al. 2018)
